Legend:
[1] = Anti-radical activity on radical propagation (hydroxyl radicals), evaluated on DPHH; details: extract containing 5% umbelliferone; vitamin E as comparison
Experimental: Evaluation of the anti-radical activity
disappearance of the free radicals. Free radical traps act on the superoxide anion O2^- but also on the hydroxyl radicals. Thus, we have sought to evaluate the anti-radical activity on these two steps.
The activity on radical propagation, and thus on the hydroxyl radicals, is evaluated on DPHH, diphenyl-picrylhydrazyl hydrate, which is a stable, colored free radical.

[2] = UVA and UVB sunscreen activity, spectrophotometric study; assay type: physicochemical; details: extract titrated to 5% umbelliferone, Parsol MCX as comparison

Row | Compound | IC50 on DPHH (radical propagation, hydroxyl radicals) [1] [µg/mL] | specific extension coefficient at 310 nm [2]
1 | vitamin E | 6 | 
2 | CCCCC(CC)COC(=O)C=Cc1ccc(OC)cc1 (centres unmarked) [Parsol MCX] |  | 810

Reference: patent publication US5869031A, “Depigmenting dermatological and/or cosmetic composition” (priority 1995, dated 1999)
